This note sets out measurements from PubChem BioAssay AID179 (DTP/NCI, 2004).

The EC50 is the midpoint of the concentration-response curve. For orientation: IC50 means the midpoint of a concentration-inhibition curve. Read a high IC50 as lower potency.

Structures are written as SMILES. “And” between values parts separate entries of the source, which are not always exact repeats. Equal values may be shown once. The source made the active and inactive calls.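 Rule for the calls: active = compounds giving half or more protection of infected cells from virus-caused growth loss, again on retest; inactive = the rest.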 Where only a bound is given, the exact number is not on record here.

The experiment concerns CEM cells HIV-1 protection, formazan growth assay. In words: NCI AIDS Antiviral Assay. Particulars: for IC50: measured here: growth of uninfected CEM cells. An outline of the steps: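 CEM (human) cells, HIV-1 infected vs uninfected, 5-point dosing, formazan growth read-out. Retest threshold 50% protection.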

For `CCCCCC[n+]1noc(N)c1-c1ccc(-c2c(N)on[n+]2CCCCCC)cc1`, the EC50 was greater than 200 µM and the IC50 amounted to 2.57 µM.
The like results for `CCOC(=O)C1(C#N)C(=O)c2cc[n+](CC[n+]3ccc4c(c3)C(=O)C(C#N)(C(=O)OCC)C4=O)cc2C1=O` (stereo not given) were, in that order, greater than 200 µM and 107 µM.
As to `COc1ccc(N=Nc2c(N)nn3cc4c(nc23)-c2ccccc2CC4)cc1`, the EC50 is greater than 200 µM and the IC50 came out at 2.57 µM.
The like results for `CC(=O)OCCn1c(Cc2ccc([N+](=O)[O-])cc2)nn(C(C)=O)c1=O` were, in that order, greater than 200 µM and greater than 200 µM.
The corresponding values for `CCC1(N=[N+]=[N-])C(=O)Nc2cc(C)ccc2C1=O` (stereo not given) are greater than 200 µM and greater than 100 µM.
The like results for `c1ccc(-c2cc(-c3cc(-c4ccccc4)n[nH]3)[nH]n2)cc1` were, in that order, greater than 200 µM and greater than 200 µM.
On to `CC1OC(n2cc(I)c(=O)[nH]c2=O)C=CC1=O` (stereo not given), for which the EC50 was greater than 347 µM and the IC50 is 2.14 µM.
The corresponding values for `COc1ccccc1NC(=O)CC(=O)N1N=C(C)C(N=Nc2ccc(C(=O)O)cc2)C1=O` (stereo not given) are greater than 200 µM and greater than 200 µM.
As for `COc1cccc(N2C(=O)C3c4[nH]c5ccccc5c4C4CCCC4C3C2=O)c1` (stereo not given), the EC50 is greater than 200 µM and the IC50 is greater than 200 µM.
Take `O=C(NCc1ccc2ccc3cccnc3c2n1)c1ccc[n+](Cc2ccccc2)c1`: the EC50 is greater than 513 µM and the IC50 worked out at 24.5 µM.
The like results for `O=C(NP(=O)(N1CC1)N1CC1)OCc1ccccc1` were, in that order, greater than 200 µM and greater than 200 µM.
The corresponding values for `CCOC(=O)C1(Br)C(c2ccccc2)NC(=O)NC1(C)Br` (stereo not given) are greater than 85.1 µM and greater than 85.1 µM.
`O=C1c2cccc3cccc(c23)C(=O)N1CCCN(CCO)CCO`: the EC50 is greater than 200 µM and the IC50 turned out to be 12.3 µM.
The like results for `Cn1c(=O)n2n(c1=O)Cc1cccc3cccc(c13)C2` were, in that order, greater than 200 µM and greater than 200 µM.
The corresponding values for `CC(C)OC/N=C(/N)NC#N` are greater than 575 µM and greater than 575 µM.
For `COc1ccc(N2C(=O)CC(=O)N(C(=O)COc3ccc(OCC(=O)N4C(=O)CC(=O)N(c5ccc(OC)cc5)C4=S)cc3)C2=S)cc1`, the EC50 was greater than 200 µM and the IC50 was determined as 50.1 µM.
As for `CC(C)(Br)C(=O)N1CCN(C(c2ccccc2)c2ccccc2)CC1`, the EC50 is greater than 25.1 µM.
`COc1ccc2c(c1)C(=O)C1CCC(=O)N1C2c1ccc2c(c1)OCO2` (stereo not given): the EC50 is greater than 200 µM and the IC50 worked out at 3.72 µM.
The like results for `Cn1c2ccccc2c2nnc(N/N=C/c3ccc([N+](=O)[O-])o3)nc21` were, in that order, greater than 200 µM and greater than 200 µM.
In the case of `CC1(C)CCCC2(C)[C@@H]1CC[C@@]13CC(=O)[C@@](C)(CC[C@@H]21)C3` (stereo not given in full), the EC50 is greater than 91.2 µM and the IC50 was greater than 91.2 µM.
`CC12CCC(O1)C1C(=O)OC(=O)C12` (stereo not given): the EC50 is greater than 490 µM and the IC50 worked out at 437 µM.
The corresponding values for `COC(=O)C1=C2Nc3ccccc3[C@@]23CCN(Cc2ccccc2)C3C[C@H]1c1ccoc1` (stereo not given in full) are greater than 29.5 µM and greater than 29.5 µM.
`CC(=O)N1N=C(c2ccc(N=Nc3c(C)nn(-c4ccccc4)c3C)cc2)OC1c1ccc(Cl)cc1` (stereo not given): the EC50 is greater than 18.6 µM and the IC50 was greater than 18.6 µM.
With `N#Cc1ccc(N(O)C(=O)c2ccccc2)cc1`, the EC50 was greater than 200 µM and the half-maximal inhibitory concentration (IC50) turned out to be 46.8 µM.
Regarding `CC1(C)COC2=C(C1)C(=O)c1ccccc1C2=O`, the EC50 is greater than 200 µM and the IC50 is 0.708 µM.
The like results for `O=C1C(NS(=O)(=O)c2ccccc2)=C(N(Cc2ccccc2)Cc2ccccc2)C(=O)c2ccccc21` were, in that order, greater than 200 µM and 72.4 µM.
The corresponding values for `COC1/C=C/OC2(C)Oc3c(C)c(O)c4c(O)c(c(/C=N/N5CCCCC5)c(O)c4c3C2=O)NC(=O)C(C)=C/C=C/C(C)C(O)C(C)C(O)C(C)C(OC(C)=O)C1C` (stereo not given) are greater than 200 µM and 10.2 µM.
The corresponding values for `COc1ccc(C(c2ccccc2)N2C(=O)CCC2C(=O)O)cc1OC` (stereo not given) are greater than 200 µM and greater than 200 µM.
`CCCCCCCCCCOC1C(C(C)OCCCN(C)C)OC2OC3(CCCCC3)OC21` (stereo not given): the EC50 is greater than 200 µM and the IC50 amounted to 10.5 µM.
The like results for `CC(C)(CCNc1c2ccccc2nc2cccc([N+](=O)[O-])c12)[N+](C)(C)[O-]` were, in that order, greater than 0.2 µM and 0.12 µM.
On to `COC(=O)c1nc(-c2ccc3c(n2)C(=O)C(N)=C(OC)C3=O)c(N)c(-c2ccc(OC)c(OC)c2O)c1C`, for which the EC50 was greater than 10 µM and the IC50 came to 1.66 µM.
On to `O=C1NC23CC=CCC12CCCCCC3` (stereo not given), for which the EC50 is greater than 389 µM.
Consider `COc1ccc(C(=O)CC(c2ccccc2)[C@H]2C(c3ccc(OC)cc3)=Nc3c(nc(SC)n(C)c3=O)NC2c2ccccc2)cc1` (stereo not given in full), for which the EC50 was greater than 200 µM and the half-inhibitory concentration (IC50) came to 19.1 µM.
The corresponding values for `Cn1cnc(N)c1S(N)(=O)=O` are greater than 1410 µM and greater than 1410 µM.
For the compound `O=C1/C(=C/c2cccc([N+](=O)[O-])c2)Cc2ccccc21`, the EC50 was greater than 200 µM and the IC50 was greater than 200 µM.
As to `Nc1c(N=Nc2ccc(/C=C/c3ccc(N=Nc4cc(S(=O)(=O)O)c5ccccc5c4N)cc3S(=O)(=O)O)c(S(=O)(=O)O)c2)cc(S(=O)(=O)O)c2ccccc12`, the EC50 is 8.71 µM and the IC50 was 77.6 µM.
Turning to `COC(=O)C(=O)C(C(=O)C=C(C)C)C(=O)C(=O)Nc1cccc(C(C)=O)c1` (stereo not given), the EC50 was greater than 251 µM.
In the case of `Cc1cc(C)nc(NS(=O)(=O)c2ccc(Nc3c4ccccc4nc4c(C(=O)NCCO)cccc34)cc2)n1`, the EC50 was greater than 200 µM and the IC50 amounted to 7.76 µM.
For `O=P(Nc1ccccc1)(Oc1ccccc1)N(CCCl)CCCl` (stereo not given), the EC50 was greater than 50.1 µM and the half-inhibitory concentration (IC50) stood at 22.4 µM.
For `COC(=O)c1cc(=O)nc2cc3cccccc3n12`, the result was inactive.
For `CCCCCCSSCCCCCC`, the EC50 is greater than 200 µM and the half-maximal inhibitory concentration (IC50) is greater than 200 µM.
With `CC1Cn2c(=S)[nH]c3cccc(c32)NC1=O` (stereo not given), the EC50 was greater than 200 µM and the IC50 was greater than 200 µM.
As to `CC(=O)N(C[C@H]1CN(Cc2ccccc2)CC[C@H]1O)C12CC3CC(CC(C3)C1)C2`, the EC50 is greater than 91.2 µM and the IC50 was found to be 69.2 µM.
With `CCOC(=O)c1ccc(NC(=S)Nc2ncccc2C)cc1`, the EC50 is greater than 200 µM and the IC50 is 158 µM.
Take `CC(C)CCCC(C)[C@H]1CC[C@H]2[C@@H]3CC[C@H]4C[C@@H](CCC=C(c5cc(Cl)c(OCc6cccc(C(=O)O)c6)c(C(=O)O)c5)c5cc(Cl)c(OCc6cccc(C(=O)O)c6)c(C(=O)O)c5)CC[C@]4(C)[C@H]3CC[C@]12C` (stereo not given in full): the EC50 is 5.5 µM and 1.78 µM; the IC50 was greater than 200 µM.
With `CCN(CC)CCOc1ccc(/C(C#N)=C/c2ccc(C(F)(F)F)cc2)cc1`, the EC50 was greater than 20 µM and the IC50 worked out at 1.23 µM.
The corresponding values for `CCCCCCCCCCNCCSSCc1ccccc1` are greater than 200 µM and 8.91 µM.
The like results for `Cc1cc(C)c(-n2[nH]c(=O)n(C)c2=O)c(C)c1` were, in that order, greater than 200 µM and greater than 200 µM.
The corresponding values for `O=c1nc2ccccc2c2n1CCN2` are greater than 95.5 µM and greater than 95.5 µM.
Take `COC(=O)C(C(=O)C(=O)Nc1ccc(C)cc1)c1nc2ccc([N+](=O)[O-])cc2[nH]c1=O` (stereo not given): the EC50 was greater than 44.7 µM and the IC50 was greater than 44.7 µM.
Turning to `NC(N)=NS(=O)(=O)c1ccc(NC(=O)c2ccc3[nH]c4ccccc4c(=O)c3c2)cc1`, the EC50 was greater than 200 µM and the IC50 is greater than 200 µM.
On to `CCC1OC2CS(=O)(=O)CC2O1` (stereo not given), for which the EC50 was greater than 1290 µM and the IC50 is greater than 1290 µM.
For `Nc1nc(Cl)cc(NCC2(CO)CC(c3ccccc3)C2)n1` (stereo not given), the EC50 was greater than 20 µM and the IC50 is 1.58 µM.
The corresponding values for `O=C(O)Cn1ccc(=O)c2cc([N+](=O)[O-])ccc21` are greater than 200 µM and greater than 200 µM.
The corresponding values for `CC1=C(C(=O)NNC(=O)C[n+]2ccccc2)CC(C(=O)NNC(=O)C[n+]2ccccc2)=C(C)N1` are greater than 200 µM and greater than 200 µM.
For the compound `Cc1c(C(=N)N)oc2ccccc12`, the outcome was inactive.
For the compound `O=S(=O)(O)C(O)CC(O)S(=O)(=O)O` (stereo not given), the EC50 is greater than 200 µM and the IC50 was 102 µM.
The like results for `Cc1c(-c2nnc(-c3ccccc3)o2)c(=O)n(-c2ccccc2)n1C` were, in that order, greater than 200 µM and greater than 200 µM.
Turning to `O=S(O)CCCCSSCC(O)CO` (stereo not given), the EC50 is greater than 200 µM and the IC50 stood at 2.63 µM.
Regarding `CNc1ccc(C)cc1S(=O)(=O)c1ccc(OC)cc1`, the EC50 was greater than 200 µM and the IC50 amounted to 95.5 µM.
The corresponding values for `N=c1c2ccccc2c2ccccc2n1O` are greater than 200 µM and greater than 100 µM.
The like results for `Cc1c(N2CCN(C)CC2)nc2ccc(Cl)cc2c1-c1ccccc1` were, in that order, greater than 14.8 µM and greater than 14.8 µM.
As for `NC(=O)c1ccc(NCC2=CC(=O)C=CC2=O)cc1`, the EC50 is greater than 40.7 µM and the half-inhibitory concentration (IC50) worked out at 17.4 µM.
For the compound `Cc1nc2c(Br)cc(Br)cc2c(=O)n1-c1ccccc1NC1OC(CO)C(O)C(O)C1O` (stereo not given), the EC50 was greater than 200 µM; the IC50 was > 200 µM and 105 µM.
On to `Cc1ccc(/C=C(/C(=O)c2ccccc2)c2ccccc2)cc1`, for which the EC50 was greater than 4.9 µM and the IC50 was greater than 4.9 µM.
Take `O=[N+]([O-])C(/C(Cl)=C(\Cl)Br)=C(/Cl)SCc1ccccc1`: the EC50 was greater than 200 µM and the IC50 came out at 1.78 µM.
The corresponding values for `O=NC1C(Cl)C2CC1C1C(Br)C(Br)CC21` (stereo not given) are greater than 200 µM and greater than 200 µM.
The like results for `Cc1ccc(C(=O)Nc2ccc(S(=O)(=O)O)c3cc(S(=O)(=O)O)cc(S(=O)(=O)O)c23)cc1NC(=O)c1cccc(N)c1` were, in that order, greater than 200 µM and greater than 200 µM.
For the compound `O=C(O)c1ccc(P(=O)(O)c2ccc(C(=O)O)cc2Br)c(Br)c1`, the EC50 was greater than 200 µM and the IC50 was greater than 200 µM.
In the case of `N#Cc1c2n(c(=S)n(-c3ccccc3)c1=O)CCCCCCC2`, the EC50 is greater than 200 µM and the IC50 worked out at 162 µM.
